Source: the NIST ThermoML archive (doi:10.1021/acs.jced.8b00554)
± gives the expanded uncertainty stated by the source.

Experiment: xn = mol fraction of the nth substance listed
Conditions: Liquid, Vibrating tube method

CCCCCCCCC [nonane] + CCCO
Conditions | mass density [kg/m3]
323.15 K, 12010 kPa, x2 = 0.8941 | 768.14 ± 4.9
323.15 K, 12020 kPa, x2 = 0.1231 | 706.6 ± 4.5
323.15 K, 12020 kPa, x2 = 0.2315 | 710.98 ± 4.6
323.15 K, 12020 kPa, x2 = 0.4272 | 720.79 ± 4.6
323.15 K, 13000 kPa, x2 = 0.1231 | 707.48 ± 4.5
323.15 K, 13000 kPa, x2 = 0.4272 | 721.68 ± 4.6
323.15 K, 13000 kPa, x2 = 0.7021 | 743.81 ± 4.8
323.15 K, 13010 kPa, x2 = 0.2315 | 711.85 ± 4.6
323.15 K, 13010 kPa, x2 = 0.8941 | 768.99 ± 4.9
323.15 K, 13020 kPa, x2 = 0.3229 | 715.95 ± 4.6
323.15 K, 14000 kPa, x2 = 0.1231 | 708.35 ± 4.5
323.15 K, 14000 kPa, x2 = 0.2315 | 712.73 ± 4.6
323.15 K, 14000 kPa, x2 = 0.8941 | 769.85 ± 4.9
323.15 K, 14010 kPa, x2 = 0.4272 | 722.55 ± 4.6
323.15 K, 14020 kPa, x2 = 0.3229 | 716.82 ± 4.6
323.15 K, 14020 kPa, x2 = 0.7021 | 744.68 ± 4.8
323.15 K, 15000 kPa, x2 = 0.1231 | 709.2 ± 4.5
323.15 K, 15000 kPa, x2 = 0.3229 | 717.67 ± 4.6
323.15 K, 15010 kPa, x2 = 0.7021 | 745.54 ± 4.8
323.15 K, 15010 kPa, x2 = 0.8941 | 770.68 ± 4.9
323.15 K, 15020 kPa, x2 = 0.2315 | 713.58 ± 4.6
323.15 K, 15020 kPa, x2 = 0.4272 | 723.42 ± 4.6
323.15 K, 16010 kPa, x2 = 0.1231 | 710.02 ± 4.5
323.15 K, 16010 kPa, x2 = 0.8941 | 771.51 ± 4.9
323.15 K, 16020 kPa, x2 = 0.2315 | 714.42 ± 4.6
323.15 K, 16020 kPa, x2 = 0.3229 | 718.52 ± 4.6
323.15 K, 16020 kPa, x2 = 0.4272 | 724.26 ± 4.6
323.15 K, 16020 kPa, x2 = 0.7021 | 746.38 ± 4.8
323.15 K, 17000 kPa, x2 = 0.2315 | 715.27 ± 4.6
323.15 K, 17000 kPa, x2 = 0.3229 | 719.35 ± 4.6
323.15 K, 17000 kPa, x2 = 0.8941 | 772.34 ± 5
323.15 K, 17010 kPa, x2 = 0.4272 | 725.1 ± 4.7
323.15 K, 17020 kPa, x2 = 0.1231 | 710.86 ± 4.6
323.15 K, 17020 kPa, x2 = 0.7021 | 747.22 ± 4.8
323.15 K, 18000 kPa, x2 = 0.1231 | 711.67 ± 4.6
323.15 K, 18010 kPa, x2 = 0.2315 | 716.08 ± 4.6
323.15 K, 18010 kPa, x2 = 0.3229 | 720.19 ± 4.6
323.15 K, 18010 kPa, x2 = 0.4272 | 725.91 ± 4.7
323.15 K, 18010 kPa, x2 = 0.7021 | 748.04 ± 4.8
323.15 K, 18010 kPa, x2 = 0.8941 | 773.16 ± 5
323.15 K, 19010 kPa, x2 = 0.1231 | 712.48 ± 4.6
323.15 K, 19010 kPa, x2 = 0.2315 | 716.87 ± 4.6
323.15 K, 19010 kPa, x2 = 0.3229 | 720.99 ± 4.6
323.15 K, 19010 kPa, x2 = 0.4272 | 726.74 ± 4.7
323.15 K, 19020 kPa, x2 = 0.7021 | 748.85 ± 4.8
323.15 K, 19020 kPa, x2 = 0.8941 | 773.95 ± 5
323.15 K, 20000 kPa, x2 = 0.4272 | 727.54 ± 4.7
323.15 K, 20010 kPa, x2 = 0.2315 | 717.66 ± 4.6
323.15 K, 20010 kPa, x2 = 0.8941 | 774.74 ± 5
323.15 K, 20020 kPa, x2 = 0.1231 | 713.24 ± 4.6
323.15 K, 20020 kPa, x2 = 0.3229 | 721.77 ± 4.6
323.15 K, 20020 kPa, x2 = 0.7021 | 749.67 ± 4.8
333.15 K, 100 kPa, x2 = 0.1231 | 686.98 ± 4.4
333.15 K, 100 kPa, x2 = 0.2315 | 690.52 ± 4.4
333.15 K, 100 kPa, x2 = 0.3229 | 694.34 ± 4.5
333.15 K, 100 kPa, x2 = 0.4272 | 699.84 ± 4.5
333.15 K, 100 kPa, x2 = 0.7021 | 721.88 ± 4.6
333.15 K, 100 kPa, x2 = 0.8941 | 747.76 ± 4.8
333.15 K, 1000 kPa, x2 = 0.8941 | 748.19 ± 4.8
333.15 K, 1010 kPa, x2 = 0.2315 | 691.2 ± 4.4
333.15 K, 1010 kPa, x2 = 0.3229 | 694.86 ± 4.5
333.15 K, 1010 kPa, x2 = 0.4272 | 700.34 ± 4.5
333.15 K, 1010 kPa, x2 = 0.7021 | 722.39 ± 4.6
333.15 K, 1020 kPa, x2 = 0.1231 | 687.08 ± 4.4
333.15 K, 2000 kPa, x2 = 0.3229 | 695.92 ± 4.5
333.15 K, 2000 kPa, x2 = 0.4272 | 701.38 ± 4.5
333.15 K, 2010 kPa, x2 = 0.1231 | 688.14 ± 4.4
333.15 K, 2010 kPa, x2 = 0.2315 | 692.25 ± 4.4
333.15 K, 2010 kPa, x2 = 0.8941 | 749.18 ± 4.8
333.15 K, 2020 kPa, x2 = 0.7021 | 723.42 ± 4.6
333.15 K, 3000 kPa, x2 = 0.1231 | 689.17 ± 4.4
333.15 K, 3000 kPa, x2 = 0.2315 | 693.28 ± 4.4
333.15 K, 3010 kPa, x2 = 0.4272 | 702.44 ± 4.5
333.15 K, 3010 kPa, x2 = 0.8941 | 750.17 ± 4.8
333.15 K, 3020 kPa, x2 = 0.3229 | 696.96 ± 4.5
333.15 K, 3020 kPa, x2 = 0.7021 | 724.44 ± 4.6
333.15 K, 4000 kPa, x2 = 0.7021 | 725.48 ± 4.7
333.15 K, 4010 kPa, x2 = 0.1231 | 690.19 ± 4.4
333.15 K, 4010 kPa, x2 = 0.2315 | 694.31 ± 4.5
333.15 K, 4010 kPa, x2 = 0.4272 | 703.48 ± 4.5
333.15 K, 4020 kPa, x2 = 0.3229 | 697.98 ± 4.5
333.15 K, 4020 kPa, x2 = 0.8941 | 751.17 ± 4.8
333.15 K, 5010 kPa, x2 = 0.2315 | 695.33 ± 4.5
333.15 K, 5010 kPa, x2 = 0.3229 | 699.01 ± 4.5
333.15 K, 5010 kPa, x2 = 0.4272 | 704.5 ± 4.5
333.15 K, 5010 kPa, x2 = 0.8941 | 752.16 ± 4.8
333.15 K, 5020 kPa, x2 = 0.1231 | 691.22 ± 4.4
333.15 K, 5020 kPa, x2 = 0.7021 | 726.49 ± 4.7
333.15 K, 6000 kPa, x2 = 0.7021 | 727.51 ± 4.7
333.15 K, 6000 kPa, x2 = 0.8941 | 753.15 ± 4.8
333.15 K, 6010 kPa, x2 = 0.2315 | 696.33 ± 4.5
333.15 K, 6010 kPa, x2 = 0.4272 | 705.51 ± 4.5
